Experimental data published in patent US7951789B2 (priority 2006, dated 2011).
Read-outs that look alike come from different tables or passages of the source.

Key:
[1] = tested on: HCV Conl subgenomic replicon (GS4.1 cells); experiment: HCV replicon assay (NS4A ELISA, HCV ELISA 2); format: cell-based; settings: Hepatitis C virus; GS4.1 cells, 72 hours, NS4A ELISA; read-out: HCV ELISA 2 EC50
Method: (§1) Huh-7 cells containing HCV Conl subgenomic replicon (GS4.1 cells), (C. Seeger; Fox Chase University, Philadelphia, Pa., USA), are grown in Dulbecco's Modified Eagle Medium (DMEM) supplemented with 10% fetal bovine serum (FBS), 2 mM L-glutamine, 110 mg/L sodium pyruvate, 1×non-essential amino acids, 100 U/mL penicillin-streptomycin and 0.5 mg/mL G418 (Invitrogen). For dose-response testing, the cells are seeded in 96-well plates at 7.5×10^3 cells/well in a volume of 50 μL and incubated at 37° C./5% CO2. Three hours after plating, 50 μL of ten 2-fold serial dilutions of compounds (highest concentration, 75 μM) are added and cell cultures were incubated at 37° C./5% CO2 in the presence of 0.5% DMSO. Alternatively, compounds are tested at a single concentration of 15 μM. In all cases, Huh-7 cells lacking the HCV replicon served as negative control. The cells are incubated in the presence of compounds for 72 hours after which they were monitored for expression of the NS4A protein by enzyme-linked immunosorbent assay (ELISA). For this, the plates were then fixed for 1 min with 1:1 acetone:methanol, washed twice with phosphate-buffered saline (PBS), 0.1% Tween 20, blocked for 1 hour at room temperature with TNE buffer containing 10% FBS and then incubated for 2 h at 37° C. with the anti-NS4A mouse monoclonal antibody A-236 (ViroGen) diluted in the same buffer. After washing three times with PBS, 0.1% Tween 20, the cells are incubated 1 hour at 37° C. with anti-mouse immunoglobulin G-peroxidase conjugate in TNE, 10% FBS. After washing as described above, the reaction is developed with O-phenylenediamine (Zymed). The reaction is stopped after 30 minutes with […] and the absorbance is read at 492 nm using a Sunrise Tecan spectrophotometer. EC50 values are determined from the % inhibition versus concentration data using a sigmoidal non-linear regression analysis based on four parameters with Tecan Magellan software. […] For cytotoxicity evaluation, GS4.1 cells are treated with compounds as described above and cellular viability was monitored using a Cell Titer 96 AQueous One Solution Cell Proliferation Assay (Promega). CC50 values are determined from the % cytotoxicity versus concentration data with Tecan Magellan software as described above.

[2] = Cytotoxicity evaluation in GS4.1 cells (Cell Titer 96 AQueous One Solution); format: cell-based; settings: human, 72 hours
Method: as §1

[3] = Pharmacokinetic (PK) studies, oral, rat; format: in vivo; settings: orally administered
Method: (§2) Methods: For pharmacokinetic (PK) and toxicology studies, B102 were orally administered to rats or monkeys at doses from 20 to 300 mg/kg/day up to 14 days. Hepatic nucleoside TP levels were determined by LC-MS/MS. Compounds (10 mg/kg/day) were administered once daily by oral gavage for 4 days in chimpanzees chronically infected with HCV genotype 1. HCV viral loads were monitored before, during and after treatment by quantitative RT-PCR.

[4] = Pharmacokinetic (PK) studies, oral, monkey; format: in vivo; settings: orally administered
Method: as §2

[5] = tested on: HCV genotype 1; experiment: Antiviral activity in chimpanzees chronically infected with HCV genotype 1; format: in vivo; settings: 4 days; for Mean viral load reduction: HCV-infected chimpanzees, 10 mg/kg/day oral once daily
Method: as §2

[6] = tested on: wild-type HBV (secreted virions); experiment: Anti-HBV activity in HBV virions via endogenous polymerase assay (EPA); format: cell-based; settings: Hepatitis B virus, read-out: Virion EC50 (μM)
Method: (§3) Compounds were tested in an anti-HBV assay. Determination of anti-HBV activity in HBV virions and nucleocapsids via endoenous polymerase assays (EPA)
(§4) • 1. 12-well collagen-I coated plates were seeded with producer cells expressing wild-type HBV at a density of 0.5-1×10^6 cells per well in 2 ml growth/selection media. • 2. Drug stock solutions were made up freshly in 100% DMSO as 200× stocks. Five additional 4-fold dilutions were prepared from these 200× stock in 100% DMSO. For each experiment, 4 aliquots of each drug dilution series were stored at −20° C. until used. • 3. Once cells reached confluency (1 day after cells were seeded), drug treatment was initiated by adding 10 μl of drug dilution into 2 ml of fresh growth/selection media. […] The no-drug control wells received only 10 μl of DMSO in fresh media. • 4. Cells were treated every-other-day with 2 ml of fresh drug/medium for a total of 8 days. Cell lysates were then collected on day 10 and subjected to EPA analysis as described below. Preparation of Nucleocapsid-Containing Lysates for Epa Analysis • 1. Cells were grown for 3 to 4 days in 12-well collagen-I coated plates until confluent. • 2. Media was carefully aspirated and the cell monolayers were rinsed once with 1 ml of PBS. • 3. One ml of lysis buffer (50 mM Tris-HCl pH 7.5/150 mM NaCl/5 mM MgCl2/0.2% NP-40) was added to each well. Plates were stored on ice for 30 min to 4 h. • 4. Lysed cells were transferred to 1.5 ml-microfuge tubes. • 5. Lysates were clarified by spinning at 14,000 rpm for 5 min at room temperature. • 6. Clarified lysates were transferred to fresh tubes and immediately frozen on dry-ice, then stored at −80° C. until endogenous polymerase assays were performed as described below. Preparation of Secreted Virions from Supernatant for Epa Analysis • 1. Cells were grown for 3 to 4 days in 12-well collagen-I coated plates until confluent. • 2. Media was carefully aspirated and transferred to 1.5 ml-microfuge tubes. • 3. Supernatants were clarified by spinning at 14,000 rpm for 5 min at room temperature. • 4. Clarified supernatants were transferred to fresh tubes and immediately frozen on dry-ice, then stored at −80° C. until endogenous polymerase assays were performed essentially as described below. Endogenous Polymerase Assay (EPA) of Cell Lysates and Supernatants • 1. EPAs were performed essentially as described by Seifer et al (1998). Intracellular HBV nucleocapsids were immunoprecipitated from the cytoplasmic lysates overnight at 4° C. with a polyclonal rabbit anti-HBcAg antibody and immobilized on protein A sepharose CL-4B beads. Secreted virions were immunoprecipitated from clarified cell supernatants overnight at 4° C. with a monoclonal mouse anti-LS antibody (MA18/7) in the absence of detergent. • 2. Following 3 washes of the immobilized capsids or virions with 1 ml of EPA wash buffer (75 mM NH4Cl, 50 mM Tris-HCl pH 7.4, 1 mM EDTA), endogenous polymerase reactions were initiated by adding 50 μl of detergent-containing EPA cocktail (50 mM Tris-HCl pH7.4, 75 mM NH4Cl, 1 mM EDTA, 20 mM MgCl2, 0.1 mM β-ME, 0.5% NP-40, 100 μM cold dGTP, TTP, dCTP, and 50 nM ^33P-dATP) and incubated overnight at 37° C. The detergent is required to strip the outer envelope from immunoprecipitated virions as well as to enhance permeability of the nucleocapsids. • 3. Following digestion with 1 mg/ml of proteinase K for 1 h at 37° C., endogenously ^33P-labeled HBV DNA was liberated via phenol/chloroform extraction. • 4. The nucleic acids were precipitated with 1 volume of 5M NH4-acetate and 2.5 volumes of 100% EtOH, and then separated on a 1% native agarose gel in Tris-borate-EDTA buffer. • 5. Gels were blotted onto positively charged nylon membrane overnight at room temperature via capillary transfer in 0.4 N NaOH. • 6. Dried membranes were exposed to a Phosphorlmager screen (GE Healthcare) overnight at room temperature, then scanned (Storm 860, GE Healthcare) and quantitated with ImageQuant software (GE Healthcare). • 7. […]

[7] = tested on: wild-type HBV (intracellular nucleocapsids); experiment: Anti-HBV activity in HBV nucleocapsids (RI) via endogenous polymerase assay (EPA); format: cell-based; settings: Hepatitis B virus
Method: as §3, §4

[8] = tested on: HBV wt (HepG2); experiment: Anti-HBV activity in HBV-infected HepG2 cells; format: cell-based; settings: N=3
Method: The compound of Example 1 (NM 204) (Hydroxy-tBuSATE N-benzylphosphoramidate derivative of L-ddA) (A550) was contacted with HBV-infected HepG2 cells. EC50 values were measured according to standard techniques.

[9] = wild-type HBV producer cell line, intracellular nucleocapsids, EPA, read-out: RI EC50

CC(C)(CO)C(=O)SCCOP(=O)(NCc1ccccc1)OC[C@H]1O[C@@H](n2ccc(N)nc2=O)[C@](C)(O)[C@@H]1O (mixture of isomers) [Example B102, Hydroxy-tBuSATE N-benzylphosphoramidate Derivative of 2′-C-methylcytidine]
EC50 [1]: 1 to 10 µM
CC50 [2]: > 75 µM
first-pass hepatic extraction [3]: > 95%
systemic exposure [3]: < 1%
first-pass hepatic extraction [4]: > 95%
systemic exposure [4]: < 1%
Mean viral load reduction [5]: 1.5 log 10
lab abnormalities or evidence of toxicities ([5]; chimpanzees, 10 mg/kg/day oral): No lab abnormalities or evidence of toxicities were observed

CC(C)NP(=O)(OCCSC(=O)C(C)(C)CO)OC[C@@H]1CC[C@H](n2cnc3c(N)ncnc32)O1 (stereo partly drawn) [A348 (NM 48)]
EC50 [6]: < 1 µM

CC(C)NP(=O)(OCCSC(=O)C(C)(CO)CO)OC[C@H]1CC[C@@H](n2cnc3c(N)ncnc32)O1 (stereo partly drawn) [A361 (NM 55)]
EC50 [6]: > 10 µM
EC50 [7, 9]: 1 to 10 µM

CC(C)NP(=O)(OCCSC(=O)C(C)(CO)CO)OC[C@@H]1CC[C@H](n2cnc3c(N)ncnc32)O1 (stereo partly drawn) [A362 (NM 77)]
EC50 [6]: 1 to 10 µM
EC50 [7, 9]: 1 to 10 µM

CC(C)(CO)C(=O)SCCOP(=O)(NCc1ccccc1)OC[C@H]1CC[C@@H](n2cnc3c(N)ncnc32)O1 (stereo partly drawn) [A550 (NM 204)]
EC50 [6]: < 1 µM
EC50 [7, 9]: < 1 µM

CC(C)N(C(C)C)P(=O)(OCCSC(=O)C(C)(C)CO)OC[C@@H]1CC[C@H](n2cnc3c(N)ncnc32)O1 (stereo partly drawn) [A616 (NM 128)]
EC50 ([7]; read-out: RI EC50 (μM)): 1 to 10 µM

CC(C)(CO)C(=O)SCCOP(=O)(NCc1ccccc1)OC[C@@H]1CC[C@H](n2cnc3c(N)ncnc32)O1 (stereo partly drawn) [C819 (NM 177)]
EC50 [6]: 1 to 10 µM
EC50 [7, 9]: 1 to 10 µM

CC(C)(CO)C(=O)SCCOP(=O)(NCc1ccccc1)OC[C@H]1CC[C@@H](n2cnc3c(N)ncnc32)O1 (stereo partly drawn) [Ex 1 (A550)]
EC50 ([8]; Hepatitis B virus): 0.062 ± 0.018 µM

CC(C)NP(=O)(OCCSC(=O)C(C)(C)CO)OC[C@H]1CC[C@@H](n2cnc3c(N)ncnc32)O1 (stereo partly drawn) [Example C791]
EC50 [6]: 1 to 10 µM

Cc1cn([C@@H]2CC(O)[C@H](CO)O2)c(=O)[nH]c1=O (stereo partly drawn) [L-dT, Telbivudine, reference compound]
EC50 [7, 9]: < 1 µM

Nc1ccn([C@@H]2CS[C@H](CO)O2)c(=O)n1 [Lamivudine, lamivudine]
EC50 ([8]; Hepatitis B virus): 0.022 ± 0.007 µM

Nc1ncnc2c1ncn2[C@@H]1CC[C@H](CO)O1 [LddA, L-ddA]
EC50 [8]: > 10 µM

CC(C)[C@H](N)C(=O)O[C@@H]1[C@@H](CO)O[C@@H](n2ccc(N)nc2=O)[C@]1(C)O [valopicitabine, reference compound]
Mean viral load reduction [5]: 0.7 log 10
